# Assay results published in a melting point compilation (Tetko et al.; mined from patent text by program, amines drawn as free bases though some values may be those of a salt).
row,SMILES,melting point [°C]
1,CCOC(C)O[C@H]1C(=O)N(C(=O)OC(C)(C)C)[C@H]1c1ccccc1 (some centres undefined),90 to 91
2,CCOC(=O)C1CCNCC1c1nc2cc(-c3ccc(OC)cc3)nnc2c2ccccc12 (centres undefined),160 to 161
3,CCc1onc(-c2ccccc2)c1C(=O)NCCCN1CCN(c2ccc(F)cc2OCC(F)(F)F)CC1,115 to 117
4,Cc1cccc(C)c1-c1cccc2c1CC(CN)O2 (centres undefined),> 250
5,CCc1cccc2c(C(CO)NC=O)c[nH]c12 (centres undefined),195 to 197
6,COc1ccc(-c2[nH]nc3c2C(=O)c2c(NC(=O)Cc4ccccc4Cl)cccc2-3)cc1,300
7,CC(C)(C)OC(=O)n1[nH]c2c(cnc3c([N+](=O)[O-])cccc32)c1=O,> 250
8,N#Cc1ncc(-c2ccc(Br)cc2)cn1,202 to 204
9,COc1cc(N)c(Cl)cc1C(=O)N[C@@H]1CCN(CCCOc2ccc(F)cc2)C[C@H]1F (relative stereo),125
10,O=C(O)CN1C(=O)c2cccc3c(Sc4ccccc4)ccc(c23)C1=O,250 to 253
11,COc1cc2cc(CO)cc(-c3ccnc(Cl)c3)c2cc1OC,115 to 118
12,COc1cc(Nc2ncc3cc(-c4c(Cl)cccc4Cl)c(=O)n(C)c3n2)cc(OC)c1,228 to 230
13,CC(C)(C)n1ncc(NCCN2CCNC(c3cccc(C(F)(F)F)c3)C2)c(Cl)c1=O (centres undefined),124 to 127
14,COc1cc(C(=O)O)ccc1Cc1c(Cl)n(C)c2cc(Cl)c(CCNC(=O)N(C)C)cc12,207
15,Cc1ccc(-c2cccc(/C=C/C(=O)Nc3ccc(Cn4ccnc4)cc3)c2)cc1,198 to 200
16,CNC(=O)NS(=O)(=O)c1cc(CCNC(=O)c2cc(Cl)ccc2OC)ccc1-c1ccco1,118 to 120
17,CN(C)c1cccc(OC(=O)NC2C(=O)N(CCC(C)(C)C)c3ccccc3N(c3ccccc3F)C2=O)c1 (centres undefined),160 to 161
18,COc1ccc(CN2CCC(c3cn(Cc4ccc(Cl)s4)c4cc(F)ccc34)CC2)cc1C(=O)O,232 to 236
19,CC(O)Cc1cc(N)cc([N+](=O)[O-])c1N (centres undefined),115
20,CCOc1cc(C(O)CS(C)(=O)=O)cc(OCC)c1N (centres undefined),166 to 168
21,NC(=O)c1cc2cccc(N(CC3CC3)S(=O)(=O)c3cccs3)c2[nH]1,229 to 231
22,Cc1ccc(COc2ccccc2C=C2CCCCC2N2CCC2)cc1 (centres undefined),88 to 90
23,CS(=O)(=O)c1ccc(-c2cccn2-c2ccc3c(c2)OCO3)cc1,172 to 175
24,c1ccc(CCc2nc(COc3ccc(CCCn4ccnc4)cc3)co2)cc1,67 to 68
25,CC1(C)COC(=O)N1c1nc(-c2ccc(Br)cc2)cs1,165 to 167

row,SMILES,melting point [°C]
1,CN(c1ccccc1)c1ncccc1NC(=O)c1ccccc1F,84 to 86
2,CCOC(=O)c1coc(-c2ccc(CO)cc2)n1,99 to 101
3,C=CCOCc1nc(C(C)(C)C)nn1-c1c(Cl)cc(Cl)cc1Cl,34 to 37
4,Cc1oc(-c2ccco2)nc1COc1ccc(COc2nn(Cc3ccccc3)cc2C(=O)O)cn1,151 to 152
5,CN(C)CCn1c(=O)c2ccc(N)cc2c2cnc3cc4c(cc3c21)OCO4,300 to 301
6,Cc1ccc(C(O)c2nc3c(cc2C)CCCCC3)cc1 (centres undefined),143 to 145
7,O=C(O)c1cc(S(=O)(=O)N2CCSCC2)ccc1Br,195 to 198
8,Fc1ccc(-c2ncn(C3CCNCC3)c2-c2ccnc(Oc3ccc(-c4ccccc4)cc3)n2)cc1,192 to 193
9,CCN1CCC(N2C(=O)c3ccc([N+](=O)[O-])cc3C2=O)CC1,153 to 155
10,Cc1ccc(CSc2nc3cscc3n2C(=O)OC(C)(C)C)nc1,115 to 117
11,CN1C(=O)C(C(=O)c2ccc(Cl)cc2Cl)C(=O)N(C)C1=O,123 to 127
12,COC(=O)C1CCC2C3CCC4CC(=O)CCC4(C)C3C(NC3CCCC3)CC12C (centres undefined),156 to 158
13,O=C(C=NO)Nc1ccccc1F,120
14,CC1(c2ccc(N)cc2)C(=O)c2c(Cl)cc(Cl)cc2N(Cc2ccccc2)C1=O (centres undefined),209 to 210
15,Cc1cc(=O)n(CCBr)o1,39 to 40
16,CCc1nc2ccccc2n(-c2ccc(Cl)cc2)c1=O,163 to 165
17,C=CCc1ccc2oc(C(=O)OCC)c(C)c2c1O,123
18,CCOP(=O)(OCC)C(O[Si](C)(C)C)c1ccc(OC)c(C)c1 (centres undefined),37
19,CSc1cc(C)nc(SC)c1NC(=O)CCCCSc1nc2ccccc2s1,121 to 123
20,Cc1nc(N)n(N)c(=O)c1CCO,126 to 135
21,CCOC(=O)C(=O)Nc1ccc2c(=O)n3c(nc2c1)C(=Cc1ccccc1)CC3,248 to 250
22,O=[N+]([O-])c1ccc2c(c1)CCCCN2,73 to 75
23,c1ccc(CSc2nc(SCc3ccccc3)n(-c3ncccn3)n2)cc1,86 to 88
24,Cc1ccc(S(=O)(=O)N2[C@@H](C(N)=O)CC[C@H]2c2ccccc2)cc1 (racemic),130
25,CCCOc1ccc(S(=O)(=O)N2CCOCC2)cc1-c1nc2c([nH]1)c1nncn1c(=O)n2CCC,169

row,SMILES,melting point [°C]
1,O=C(Nc1ccc(F)cc1)c1ccccc1F,102 to 104
2,COc1ccc(/C=C(/C(=O)OC(C)(C)C)C(=O)c2ccccc2O)cc1,129 to 132
3,NC(=O)N(O)Cc1ccc(-c2ccccn2)s1,168
4,O=c1[nH]nc2n1-c1ccc(Cl)cc1C(c1ccccc1F)CC2 (centres undefined),236 to 238
5,Cn1cccc1-c1ccc(C(F)(F)F)cc1,39 to 40
6,CC(Oc1cc2sc(NC(=O)CCCN3CCCC3)nc2cc1F)c1c(Cl)ccc(F)c1Cl (centres undefined),153 to 157
7,CCOC(=O)c1cn2c3c(ccc(Cl)c3c1=O)OCC2C (centres undefined),205 to 206
8,Cn1c(=O)n(S(=O)(=O)c2ccc(Cl)cc2)c(=O)c2ccc(Cl)cc21,205 to 208
9,COC(=O)C1=C(C(=O)OC)C(N)C2=C(c3cc4ccccc4s3)N=NC2=N1 (centres undefined),218 to 220
10,N#Cc1cccnc1CC1C(=O)C2(COc3cc4c(cc32)OCCO4)c2ccccc21 (centres undefined),230 to 233
11,C=CC(=O)OCCOc1ccc(Cl)c2c1Sc1ccccc1C2,90 to 91
12,c1ccc(C(Sc2nc3ccccc3[nH]2)(c2ccccc2)c2ccccc2)cc1,256
13,COc1ccccc1SCc1c(C(C)C)nc(C(C)C)c(CO)c1-c1ccc(F)cc1,129 to 131
14,c1ccc(-c2nnc3c4ccccc4c(N4CCCC4)nn23)cc1,208
15,Nc1ncnc2c1c(-c1ccc(Oc3ccccc3)cc1)cn2[C@H]1CC[C@@H](N2CCCC2)CC1,101 to 104
16,N#CCCCCCCn1c(-c2ccccc2)c(-c2ccccc2)n(-c2ccccc2)c1=O,100 to 101
17,CN(c1ccc(Cl)cc1)C1CCN(C2CCN(c3ccc(OC[C@@]4(C)Cn5cc([N+](=O)[O-])nc5O4)cc3)CC2)CC1,231 to 232
18,CCOC(=O)c1cc2c(nc(C)n2C)c2c1CCC1(Cc3ccccc3C1)N2,167 to 168
19,CC1(C)COc2ccc(C[C@H]3NC(=O)O[C@H]3c3cccc(Cl)c3)cc21 (racemic),183 to 184
20,CCOC(=O)C1=C(C)NC(C)=C(C(=O)OCC)C1c1ccccc1C=CC(=O)O,175 to 178
21,Cc1cn(-c2cc([N+](=O)[O-])cc(C(F)(F)F)c2)cn1,118 to 119
22,CCC1c2ccc(C#N)n2-c2cc(F)c(F)cc2N1S(=O)(=O)c1ccc(OC)c(C)c1 (centres undefined),153 to 155
23,O=C(CCc1c(C=C2C(=O)Nc3ccccc32)[nH]c2c1CCCC2)NCCN1CCOCC1,256 to 258
24,COC(=O)NCC1CN(c2ccc(-n3cnc(Cn4ccnc4)c3)c(F)c2)C(=O)O1 (centres undefined),78 to 80
25,O=C(O)c1ccccc1CSc1ccc(Br)cc1,139 to 140

row,SMILES,melting point [°C]
1,Cc1ccccc1C(Oc1cc(OCc2ccccc2)ccc1C#N)C(=O)O (racemic),128 to 130
2,Cc1c(C(=O)O)c(=O)c(-c2ccccc2)cn1C,227 to 228
3,CN(C)CCNC(=O)C(=O)c1ccc(OCCOc2ccc3ccccc3c2)cc1,102 to 104
4,COc1cccc(Cn2c(C(=O)O)c(-c3ccc(OCC4CC4)cc3)c3cc(OCc4ccccc4)ccc32)c1,185 to 187
5,CCOC(=O)c1cc(=O)c2ccc([N+](=O)[O-])c(C)c2o1,120
6,CN(C)Cc1cc(-c2ccccc2)c(O)c(-c2ccccc2)c1,136 to 137
7,CCOC(=O)Nc1c(Cl)cc(OC)c(OC)c1C(=O)OCC,111 to 113
8,COc1cc2c(cc1OC)C(=O)NC(=O)C2,234 to 238
9,CCN(C(=O)n1nnc2cc(Cl)c(Cl)cc21)c1ccccc1,120
10,CNC(=O)C(C)(C)N(OC(C)(C)C#N)C(C)(C)C,96 to 101
11,CC12CCC(C(=Cc3ccc(CI)cc3)C1=O)C2(C)C (centres undefined),108
12,CCOc1ccc(C2=NC[C@@H](O)[C@H](c3ccccc3)O2)cc1 (racemic),124
13,CNc1nccc(Oc2ccc(NC(=O)Nc3ccc(CN4CCN(C(C)(C)C)CC4)c(C(F)(F)F)c3)cc2)n1,257 to 258
14,CN(O)C(=O)NCCc1ccc(Cl)c(Cl)c1,108 to 109
15,CC1NC(=O)NN=C1c1ccc(O)cc1 (centres undefined),256 to 259
16,O=S1(=O)CC(=Cc2ccc(Cl)cc2)C2=NN(c3ccccc3)C(c3ccc(Cl)cc3)C2C1 (centres undefined),246 to 249
17,CCNc1ccc(N2CCOC2=O)cc1[N+](=O)[O-],140
18,COC(=O)/C=C/c1ccc(/C=C/c2ccncc2)nc1,> 143
19,Cc1cc(F)ccc1Nc1nc(N(C)c2ccccc2)c2cccc(OCCCN(C)C)c2n1,110 to 112
20,ONCc1ccccc1Cl,71 to 73
21,CCn1c(=O)c(-c2cc(C)cc(C)c2)cc2cnc(Nc3ccccc3)nc21,220 to 223
22,COc1ccc(-n2c(=O)c3c(c4cccnc42)OCC3)cc1,282 to 284
23,O=[N+]([O-])c1cc(F)ccc1NC1CCCCC1,93
24,Cc1ccc(C(=O)NCc2ccc(O)c3ncccc23)cc1,137 to 139
